Data on 1 substance can be found in patent US20240382564A1, “Methods and Compositions for Treating Muscular Dystrophy and Memory Impairment” (Allysta Pharmaceuticals, Inc., priority 2023, published 2024).

“Also recorded” adds a separate entry of the source. Where no end group is shown, it is not given here. [ ]: non-standard residue; d: D form. Nva = CCC[C@H](N)C(=O)O

Assay type in all cases: in vivo, mouse
Assay [1] has as its system D2.mdx mice. Kind of assay: Chamber-specific cardiac fibrosis, histopathological assessment. As to the method:
D2.mdx mice were treated daily subcutaneously beginning at 7 days of age for 3 weeks at 1 μL/g with ALY688 at 15 mg/kg body weight (high dose drug; HD) or with a saline (VEH) control. Mice were compared to age-matched wildtypes (DBA/2J). […] However, ADP-stimulated respiration supported by pyruvate was increased in VEH (36%) and HD (46%) vs wildtype whereas HD had no effect vs VEH.

Assay [2] relates to D2.mdx mice. As to the kind of experiment: Novel object recognition test. To be noted: 15 mg/kg b.w. daily, days 7 to 28 of age. As to the method:
Male D2.mdx mice originated from a colony maintained at York University (Toronto, Canada) and sourced from Jackson Laboratories (Stock Number 013141, Bar Harbor, United States). Mice were treated daily from days 7 to 28 of age with ALY688 at 15 mg/kg b.w. (D2.mdx-ALY688) or saline control (D2.mdx-VEH). This age was chosen given it captures an early stage of disease progression in cardiac and skeletal muscle. Mice were sacrificed 20-24 hr after the last dose. Breeding of wildtype mice was unsuccessful. Instead, three-week-old wildtype DBA/2J WT mice (D2A) were obtained from Jackson Laboratories (Stock number 000671, Bar Harbor, United States) and allowed to acclimatize for one week before sacrifice. Mice were housed in standard 12:12-hr light:dark cycles and were allowed access to standard rodent chow and water ad libitum. 4 days prior to sacrifice, all groups underwent novel object recognition acclimatization and testing as described below. Mice were anesthetized under 5% isoflurane vaporized in medical air (21% oxygen) at a flow rate of 2 L/min and then maintained at 2-3% prior to euthanasia by exsanguination. […]
The novel object recognition test (NOR) was performed as previously described in literature. […] Sessions were recorded with a cell-phone video camera secured above the apparatus. […] Discrimination ratio (DR) was calculated as follows: DR=(Time(object 2)−Time(object 1))/Total time.

The subject of assay [3] is D2.mdx mice. Kind of assay: Mitochondrial calcium retention capacity. To be noted: between groups. As to the method:
D2.mdx mice were treated with ALY688 at two different dosages; high dose (HD; 15 mg/kg body weight/day) or low dose (LD; 3 mg/kg body weight/day) dissolved in saline. A separate group of mice were treated with saline alone (VEH, vehicle). Treatment was provided via subscapular subcutaneous injections from 7 days of age to 28-30 days. […] At 28-30 days of age, mice were anaesthetized with isoflurane vaporized in medical air (21% oxygen) at a 2 L/min flow rate. Due to tissue limitations in limb muscle, certain measures were performed separately in tibialis anterior and quadriceps across several phases of breeding. […]
This assay was measured spectrofluorometrically (QuantaMaster 80, HORIBA Scientific) in a cuvette with 300 μL assay buffer containing 1 μM Calcium Green-5N (Invitrogen), 2 μM thapsigargin, 5 μM blebbistatin, and 40 μM EGTA while maintained at 37° C. with continuous stirring. 5 mM glutamate, 2 mM malate, 5 mM ADP and 20 mM creatine were added to the assay buffer and minimum fluorescence was recorded. 4 nmol pulses of CaCl2 were added until the mitochondrial permeability transition pore (mPTP) opening was observed as an increase in fluorescence corresponding to net mitochondrial calcium release, at which point saturating pulses of CaCl2 were used to establish maximum fluorescence. […]

For [dN]IP[Nva]LY[dS]FA[dS]-NH2 [ALY688], in the assay with D2.mdx mice [1] (HD 15 mg/kg s.c. daily for 3 weeks from 7 days of age), the left atrial fibrosis result is “completely rescued”. Further, the “right ventricular (RV) fibrosis” value in the assay with D2.mdx mice [1] (HD 15 mg/kg s.c. daily for 3 weeks, VEH +385%) is on record as “completely rescued”. Moreover, in the assay with D2.mdx mice [2], the “recognition memory (discrimination index, NOR test)” value was “completely prevented; also recorded: improved recognition memory; also recorded: normalized”. Also, in the assay with D2.mdx mice [3], the “mitochondrial calcium retention capacity” value is “no differences between groups”.
